Where two headings read alike, the source gives them in different places.
Tests used:
[1] = biological target: T1, glycine receptor of the NMDA receptor complex (Rattus norvegicus, UniProt P35439); experiment: [3H]-glycine binding assay (Test A)
T1 construct: Freshly dissected cortices and hippocampi are homogenized in 0.32 M sucrose; from tissue; host or cells: rat cortex and hippocampus synaptic membranes
Excerpt: The actions of compounds according to the invention as antagonists at the glycine receptor of the NMDA receptor complex can be shown by one or more standard tests such as the [^3H]-glycine binding assay (Test A) and by in vivo tests such as the red nucleus test (Test B) and the Rat Middle Cerebral Artery test (Test C). These tests confirm that compounds of the invention function as NMDA receptor antagonists in vitro and in vivo. Certain compounds of the invention are potent NMDA receptor antagonists.
In the [^3H]-glycine binding assay, neuronal synaptic membranes are prepared from adult (about 250 g) male Sprague-Dawley rats. Freshly dissected cortices and hippocampi are homogenized in 0.32 M sucrose (110 mg/mL). Synaptosomes are isolated by centrifugation (1000×g, 10 min), the supernatant is pelleted (20,000×g, 20 min) and resuspended in double-distilled water. The suspension was centrifuged for 20 minutes at 8,000×g. The resulting supernatant and buffy coat are washed twice (48,000×g, 10 min) and resuspended in double-deionized water. The final pellet is quickly frozen (dry ice/ethanol bath) under double-deionized water and stored at −70° C.
On the day of the experiment, thawed synaptic membranes are homogenized with a Brinkmann Polytron (Brinkmann Instruments, Westbury, N.Y.) tissue homogenizer in 50 millimolar tris(hydroxymethyl)aminomethane citrate, pH 7.1. The membranes are incubated with 0.04% Sufact-AMPS X100 (Pierce, Rockford, Ill.) in buffer for 20 minutes at 37° C. and washed six times by centrifugation (48,000×g, 10 min) and resuspended in buffer. The final pellet is homogenized at 200 mg wet weight/mL of the buffer for the binding assay.
For [^3H]-glycine binding at the N-methyl-D-aspartate receptor, 20 nanomolar [^3H]-glycine (40-60 Ci/mmol, New England Nuclear, Boston, Mass.) is incubated with the membranes suspended in 50 millimolar tris(hydroxymethyl)aminomethane citrate, pH 7.1 for 30 minutes at 4° C. Glycine, 1 millimolar, is used to define the nonspecific binding. Bound [^3H]-glycine is isolated from free using a Brandel (Biomedical Research and Development Laboratories, Gaithersburg, Md.) cell harvester for vacuum filtration over glass fiber filters (Whatman GF/B from Brandel, Gaithersburg, Md.) presoaked in 0.025% polyethylenimine. The samples retained on the glass fiber filters are rinsed 3 times with a total of 2.5 mL ice cold buffer. Radioactivity is estimated by liquid scintillation counting. IC50 values are obtained from a least-squares regression of a logit-log transformation of the data.

[2] = system: NMDA-induced excitatory response of red nucleus cells; experiment: Red nucleus test (Test B); format: in vivo, rat; details: anesthetized rats
Protocol: The purpose of this test is to determine the effects of intravenously administered glycine antagonists on the NMDA-induced excitatory response of red nucleus cells.
The procedure for the red nucleus test is as follows. Rats are anesthetized with chloral hydrate (400 mg/kg ip) and the femoral vein is catheterized for iv drug administration. Five-barrel micropipettes are stereotaxically positioned in the red nucleus. Typically, three to four of the five barrels are filled as follows: the recording barrel with 2M potassium citrate, the current balancing barrel with 4M NaCl, the drug barrel with 25 mM NMDA, and another drug barrel with 2.5 mM quisqualic acid (QA is only used in selectivity studies). NMDA is iontophoretically applied with an ejection current that is adjusted depending on the sensitivity of each individual red nucleus cell. The NMDA is cycled on and off (usually 30-60 sec. on and 60-120 sec. off) and the firing rate of the cell during each period is recorded. Once the baseline firing rate of the cell has been established, the test drug is administered iv. The effect of the drug on the NMDA-induced excitatory response of the red nucleus cell can be both qualitatively and quantitatively evaluated from the recordings and the raw data accumulated.

[3] = system: permanent middle cerebral artery (MCA) occlusion, focal ischemia; experiment: Rat Middle Cerebral Artery test (Test C); format: in vivo; details: I.V. dose of 20 mgs/kg/hr, SHR rats, 24 hours after MCA/common carotid artery occlusion
Protocol: Male SHR rats weighing 280-320 g are used for these studies. The method used for permanent middle cerebral artery (MCA) occlusion is as described by Brint et al (1988). […] Following occlusions, drugs are administered intravenously via jugular catheter. Twenty-four hours after MCA/common carotid artery occlusion, the animals are sacrificed and their brains quickly removed. Coronal sections of 1 mm thickness are cut using a vibratome and stained with 2,3,5-triphenyl-2H-tetrazolium chloride (TTC) dye. Following staining, necrotic tissue is readily distinguished from the intact brain and the area of infarcted cortex can be traced on an image analyzer. The infarct volume for each section is quantified with an image analyzer, and the total infarct volume is calculated with a program that summed all interval volume. See S. Brint et al. J. Cerebral Blood Flow 8:474-485 (1988). The statistical analysis of the difference between the volume of ischemic damage in the vehicle control and drug-treated animals is analyzed by Student's t-test. […] For example, the compound of example 4 at an I.V. dose of 20 mgs/kg/hr caused an infarct % volume change of −22%.

Row | Compound | melting point [°C] | IC50 [1] [nM] | other results
1 | C[C@H](C(=O)O)n1nc(O)c2[nH]c3cc(Cl)ccc3c(=O)c2c1=O [Example 13, 7-chloro-4-hydroxy-2-[(R)-1-carboxyethyl]-1,2,5,10-tetrahydropyridazino[4,5-b]quinoline-1,10-dione] | > 275 |  | 
2 | CC(c1ccccc1)n1nc(O)c2[nH]c3cc(Cl)ccc3c(=O)c2c1=O (stereo not drawn) [Example 3] |  | 370 | 
3 | CCCC(C)n1nc(O)c2[nH]c3cc(Cl)ccc3c(=O)c2c1=O (stereo not drawn) [Example 4, 7-chloro-4-hydroxy-2-(1-methylbutyl)-1,2,5,10-tetrahydropyridazino[4,5-b]quinoline-1,10-dione] | 237 to 239 | 240 | ID50, red nucleus test ([2]; as the meglumine salt (N=3), iv): 3.77 mg/kg; infarct % volume change [3]: −22%
4 | CC(Cc1ccccc1)n1nc(O)c2[nH]c3cc(Cl)ccc3c(=O)c2c1=O (stereo not drawn) [Example 5, 7-chloro-4-hydroxy-2-(1-methyl-2-phenylethyl)-1,2,5,10-tetrahydropyridazino[4,5-b]quinoline-1,10-dione] |  | 300 | 
5 | O=c1c2ccc(Cl)cc2[nH]c2c(O)nn(C3CCCCC3)c(=O)c12 [Example 2, 7-chloro-4-hydroxy-2-cyclohexyl-1,2,5,10-tetrahydropyridazino[4,5-b]quinoline-1,10-dione] | > 100 |  | IC50 ([1]; rat cortex/hippocampus synaptic membranes, 20 nanomolar [3H]-glycine, 30 minutes at 4° C., pH 7.1, read-out: IC50, [3H]-glycine binding): 120 nM
6 | NC1CCN(O)C1=O (stereo not drawn) [HA-966] |  |  | ID50, red nucleus test ([2]; reference agents, intravenous): 7.9 mg/kg iv
7 | CC(C)CC(C)n1nc(O)c2[nH]c3cc(Cl)ccc3c(=O)c2c1=O (stereo not drawn) [Example 6, 7-chloro-4-hydroxy-2-(1,3-dimethylbutyl)-1,2,5,10-tetrahydropyridazino[4,5-b]quinoline-1,10-dione] | 238 to 240 | 290 | 
8 | COC(=O)[C@@H](C)n1nc(O)c2[nH]c3cc(Cl)ccc3c(=O)c2c1=O (hydrate or solvate) [Example 7, 7-chloro-4-hydroxy-2-[(R)-1-(methyloxycarbonyl)-ethyl]-1,2,5,10-tetrahydropyridazino[4,5-b]quinoline-1,10-dione] | 262 to 264 |  | 
9 | COC(=O)C1(Cn2nc(O)c3[nH]c4cc(Cl)ccc4c(=O)c3c2=O)C=CC=CC1 (stereo not drawn) (hydrate or solvate) [Example 8, 7-chloro-4-hydroxy-2-[1-(methyloxycarbonyl)-benzyl]-1,2,5,10-tetrahydropyridazino[4,5-b]quinoline-1,10-dione] | 242 to 244 |  | 
10 | C/C(=C\C(N)C(=O)O)CP(=O)(O)O (stereo not drawn) [CGP 37849] |  |  | ID50, red nucleus test ([2]; reference agents, intravenous): 1.7 mg/kg iv
11 | CC(C(=O)Nc1ccccc1)n1nc(O)c2[nH]c3cc(Cl)ccc3c(=O)c2c1=O (stereo not drawn) [Example 1, 7-chloro-4-hydroxy-2-[1-(phenylcarbamoyl)ethyl]-1,2,5,10-tetrahydropyridazino[4,5-b]quinoline-1,10-dione] | > 250 | 240 | 
12 | CC(Cc1ccccc1)n1nc(O)c2[nH]c3cc(Cl)ccc3c(=O)c2c1=O (stereo not drawn) (hydrate or solvate) [Example 5, 7-chloro-4-hydroxy-2-(1-methyl-2-phenylethyl)-1,2,5,10-tetrahydropyridazino[4,5-b]quinoline-1,10-dione] | 241 to 244 |  | 
13 | CC(CC(=O)N(C)c1ccccc1)n1nc(O)c2[nH]c3cc(Cl)ccc3c(=O)c2c1=O (stereo not drawn) [Example 11, 7-chloro-4-hydroxy-2-[1-methyl-2-(N-phenyl-N-methylcarbamoyl)ethyl]-1,2,5,10-tetrahydropyridazino[4,5-b]quinoline-1,10-dione] | 218 to 219 |  | 
14 | O=c1c2ccc(Cl)cc2[nH]c2c(O)nn(CC3(C(F)(F)F)C=CC=CC3)c(=O)c12 (stereo not drawn) (hydrate or solvate) [Example 12, 7-chloro-4-hydroxy-2-(1-trifluoromethylbenzyl)-1,2,5,10-tetrahydropyridazino[4,5-b]quinoline-1,10-dione] | 237 to 238 |  | 
15 | CC(CC(=O)Nc1ccccc1)n1nc(O)c2[nH]c3cc(Cl)ccc3c(=O)c2c1=O (stereo not drawn) [Example 10, 7-chloro-4-hydroxy-2-[1-methyl-2-(N-phenylcarbamoyl)ethyl]-1,2,5,10-tetrahydropyridazino[4,5-b]quinoline-1,10-dione] | > 250 |  | 

From patent US6737424B2 (Zeneca Ltd., priority 1995, dated 2004)
